Tests used:
[1] = Transnitrosation between SNO-Hb and glutathione; assay type: biochemical; settings: SNO-Hb 100 μM, glutathione 10 mM
Source text: Data are presented as the amount of GSNO formed relative to the starting SNO-Hb concentration.
Thiol/SNO-Hb exchange, forming GSNO, was verified chemically (Stamler, J. S., et al., Proc. Natl. Acad. Sci. USA, 89:444-448 (1992)) following trichloroacetic acid precipitation (n=5).

[2] = tested on: Sprague-Dawley rat; test: Mean arterial blood pressure in anesthetized rats after femoral vein bolus (Examples 5, 6); assay type: in vivo; settings: for blood pressure response: bolus into femoral vein, 2-200 nmol/kg
Source text: Rats were anesthetized by intraperitoneal injection of pentobarbital and the femoral arteries and veins accessed by local cut down. The artery was then cannulated and the blood pressure monitored continuously using a Viggo Spectramed pressure transducer attached to a Gould recorder. An IBM PC (DATA Q Codas) was used for data acquisition.

[3] = Decomposition and stability of SNO-Hb forms; assay type: physicochemical; settings: as synthesized in Example 27
Description: Hbs in PBS (0.5 mM EDTA, pH 7.4) were incubated in air (oxy) or in a tonometer previously evacuated of O2 (deoxy). SNO-Hb(FeII)O2 decomposition was determined by the method of Saville (Saville, B., Analyst 83:670-672 (1958)). Spontaneous decomposition of SNO-Hb(FeII) was followed spectrophotometrically by formation of Hb(FeII)NO. Transnitrosation reactions with glutathione were performed by addition of 100-fold excess glutathione over protein (50 μM), immediate processing of the reaction mixture under anaerobic conditions followed by rapid TCA precipitation, and analysis of RSNO in the supernatant. Rates of NO group transfer were too rapid to measure accurately by the standard methods used in this study.

[4] = tested on: cGMP in platelets; test: cGMP radioimmunoassay in platelet rich plasma; assay type: cell-based; settings: 1, 10 and 100 μM; 5 min incubation
Description: Platelet rich plasma (PRP) was incubated with either hemoglobin, SNO-oxy Hb, or SNO-metHb for 5 min, after which the assay was terminated by the addition of 0.5 ml of ice cold trichloroacetic acid to 10%. Ether extractions of the supernatant were performed to remove trichloroacetic acid, and acetylation of samples with acetic anhydride was used to increase the sensitivity of the assay. Measurements of cyclic GMP were performed by radioimmunoassay (Stamler, J. et al., Circ. Res. 65:789-795 (1989)).

[5] = tested on: rabbit aortic ring; test: Vessel ring bioassay of SNO-Hb preparations (Examples 4, 13); assay type: cell-based; settings: for effect of added glutathione on the dose-response: glutathione 100 ∥M in bioassay chambers (FIG. 4B); for vasoactivity in vascular ring bioassay: no added thiol (FIG. 4A)
Description: Details of the vessel ring bioassay have been published (Stamler, J. S., et al., Proc. Natl. Acad. Sci. USA 89:444-448 (1992)). SNO-Hb(FeII)O2 preparations were synthesized with 10-fold excess S-nitrosocysteine (CYSNO) over Hb(FeII)O2 protein (2% borate, 0.5 mM EDTA, ˜15 min incubation), after which desalting was performed across Sephadex G-25 columns. CYSNO was synthesized in 0.5 N HCl, 0.5 mM EDTA and then neutralized (1:1) in 1 M phosphate buffer containing 0.5 mM EDTA. […] The latter was synthesized by treatment of Hb(FeII)O2 with excess ferricyanide, followed by desalting across G-25 columns. SNO-Hb concentrations were verified spectroscopically and the S-nitrosothiol content was determined by the method of Saville (Stamler, J. S., et al., Proc. Natl. Acad. Sci USA 89:444-448 (1992)). The S—NO/tetramer stoichiometry for both SNO-Hb preparations was ˜2. Oxidation of the heme was undetectable by uv-spectrophotometric methods.
The aortic ring bioassay was performed as described in Example 4. The product of the reaction in which a ratio of 100:1 CYSNO/Hb tetramer was used, contains 2 SNOs as well as NO attached to the heme.

[6] = tested on: platelets; test: ADP-induced aggregation of platelet-rich plasma; assay type: cell-based, human; settings: 5 μM ADP
Description: Venous blood, anticoagulated with […] sodium citrate, was obtained from volunteers who had not consumed acetylsalicylic acid or any other platelet-active agent for at least 10 days. Platelet-rich plasma was prepared by centrifugation at 150×g for 10 minutes at 25° C. and was used within 2 hours of collection. Platelet counts were determined with a Coulter counter (model ZM) to be 1.5 to 3×10^8/ml.
Aliquots (0.3 ml) of platelets were incubated at 37° C. and stirred at 1000 rpm in a PAP-4 aggregometer (Biodata, Hatsboro, Pa.). Hemoglobins were preincubated with platelets for 10 min and aggregations were induced with 5 μM ADP. Aggregations were quantified by measuring the maximal rate and extent of change of light transmittance and are expressed as a normalized value relative to control aggregations performed in the absence of hemoglobin.

[7] = tested on: rat brain (caudatoputamen nucleus); test: Brain blood flow in rats by H2 clearance (Example 12); assay type: in vivo; settings: Example 12, FIG. 10
Description: SNO-Hb(FeII)O2, having a SNO/Hb ratio of 2, was prepared (from HbA0) by reaction with S-nitrosothiol. Rats breathing 21% O2 were injected (time 0) with Hbs prepared from HbA0 as indicated in FIG. 10 (open circles, SNO-Hb (100 nmol/kg); filled circles, SNO-Hb (1000 nmol/kg); filled squares, unmodified Hb (1000 nmol/kg)). Three rats were used per experiment. Blood flow was measured in brain using the H2 clearance method; microelectrodes were placed in the brain stereotactically. […] NO group release is promoted by local tissue hypoxia.

[8] = Endogenous SNO-Hb and Hb(FeII)NO in rat blood by photolysis-chemiluminescence; assay type: in vivo; settings: 45 minutes after infusion of 50 mg/kg
Source text: A highly sensitive photolysis-chemiluminescence methodology was employed, which had been used for measuring RSNOs (S-nitrosothiols) in biological systems (Gaston, B., et al., Proc. Natl. Acad. Sci. USA 90:10957-10961 (1993); Stamler, J. S., et al., Proc. Natl. Acad. Sci USA 89:7674-7677 (1992)). The method involves photolytic liberation of NO from the thiol, which is then detected in a chemiluminesence spectrometer by reaction with ozone. […]
Blood was obtained from the left ventricle (arterial) and jugular vein (venous) of anesthetized Sprague-Dawley rats. […] In 24 rats, Hb samples were divided in two aliquots which were then treated or not treated with 10-fold excess HgCl2 over protein concentration as measured by the method of Bradford. […] Under these conditions, any nitrite present was converted to S-nitrosoglutathione, which was then measured by photolysis-chemiluminescence (detection limit ˜1 nM). SNO-Hb was present in all arterial samples, and levels determined by this method (286±33 nM) were virtually identical to and not statistically different from those shown in Table 2. […]
A highly sensitive photolysis-chemiluminescence methodology was employed. […] The method involves photolytic liberation of NO from the thiol, which is then detected in a chemiluminesence spectrometer by reaction with ozone. […]

Row | Compound | rate of NO group transfer to glutathione [1] | time for blood pressure to normalize after hypotensive response [2] | mean arterial pressure, post ([2]; after 200 nmol/kg (highest dose)) | mean arterial pressure, pre ([2]; before 200 nmol/kg infusion) | blood pressure response [2] | stability of the isolated preparation [3] | concentration of cGMP measured [4] | effect of added glutathione on the dose-response [5] | vasoactivity in vascular ring bioassay [5] | concentrations at which platelet aggregation is inhibited ([6]; preincubated 10 min) | duration of effects on blood flow in rat brain [7] | inhibition of platelet aggregation ([6]; 10 nM to 100 μM preincubated 10 min) | increase in blood pressure ([2]; 50 mg/kg) | depletion of SNO-Hb [8] | depletion of total Hb-NO [8]
1 | SNO-Hb(FeIII): S-nitroso-methemoglobin, S-nitrosylated methemoglobin | more rapid | 10 min | 74±6 mm Hg | 108±4 mm Hg | hypotensive responses | inherently unstable | less than that of native Hb | potentiates the dose-response | vasodilator | ≥ 1 µM |  |  |  |  | 
2 | SNO-Hb(FeII)O2: S-nitroso-oxyhemoglobin made from oxyHb with excess S-nitrosocysteine |  |  |  |  | did not exhibit hypertensive effects | quite stable |  | potentiates the dose-response | modest NO-like activity |  | over 20 minutes | some inhibition of platelet aggregation at the higher concentrations tested |  |  | 
3 | CNC(=N)NCCC[C@H](N)C(=O)O [L-NMMA, N^ω-monomethyl-L-arginine] |  |  |  |  |  |  |  |  |  |  |  |  | about 20 mm Hg | 82% | 50±18%

Source: patent US7538193B2, “NO-modified hemoglobins and uses therefor” (Duke University, priority 1995, dated 2009)
